For series [1], the system named is secretion of PGE2 by A549 cells stimulated with IL-1β. The experiment in a line: Inhibition of the secretion of PGE2 by A549 cells stimulated with IL-1β. The series is classed as cell-based. The note with it: Homo sapiens, IL-1β 0.2 ng/mL. An excerpt: The method described here was used for determining the inhibition activity of the present compounds on the secretion of PGE2 by A549 cells stimulated with IL-1β.
• 1. PGE2 Assay kit (Cisbio, #62P2APEB) • 2. IL-1β (Peprotech, # AF-200-01B) • 3. Cell line: A549 (ATCC: CCL-185) • 4. FlexStation3 microplate reader. II. Experimental Procedure
On the first day, A549 cells were inoculated in a 96-well plate at 40000/well. On the second day, the culture medium in the 96-well plate was removed and then added with 90 μL of compound diluted with culture medium (the concentration of each compound at seven gradient concentrations was 11111 nM, […], 1.11 nM, 0.11 nM and 0.011 nM). The cells were incubated for 30 minutes at 37° C. in an incubator, and then added with IL-1β to a final concentration of 0.2 ng/mL. Then, the cells were incubated for another 24 hours at 37° C. On the third day, 10 μl of supernatant, 5 μL of PGE2-d2 and 5 μL of anti-PGE2 Cryptate were added into a black 384-well plate, and then incubated at 4° C. overnight. HTRF was determined using Flexstation, and the IC50 of the compounds was obtained by data processing software.
The inhibition activity of the present compounds on the secretion of PGE2 by A549 cells stimulated with IL-1β was determined by the assay described above.

Series [2] deals with human mPGES1 (Homo sapiens (Human), UniProt O14684). The experiment in a line: Inhibition activity for human mPGES1 (enzyme assay, PGE2 HTRF). The note with it: membrane protein from HEK-293 F transfected with human mPGES1. The class given is biochemical. On the procedure: The method described here is used for determining the inhibition activity of the present compounds for human mPGES1.
• 1. PGE2 Assay kit (Cisbio, #62P2APEB) • 2. Prostaglandin H2 (Sigma, #P7867-1MG) • 3. FlexStation3 microplate reader. II. Experimental Procedure • 1. Obtaining the membrane proteins of mPGES1 enzyme
The cell density of HEK-293 F was grown to 6×10^5 per milliliter and was transferred with the plasmid containing human mPGES1 gene by transfection reagent PEI the next day. The cells were continuously cultured for 72 hours at 37° C. with shaking. After centrifuging at 1100 g for 5 minutes, the cells were harvested. After ultrasonication in an ice bath and centrifugation at 5000 g for 10 minutes, the supernatant was obtained. The supernatant was centrifuged at 100000 g for 1 hour to obtain a precipitate. The precipitate was resuspended with storage buffer containing 10% glycerinum, subpackaged and frozen rapidly under liquid nitrogen, and stored at −80° C. • 2. mPGES1 enzyme assay
mPGES1 was diluted with assay buffer and added into plate at 49 μL/well supplemented with 1 μL of compound (the final concentration of each compound at seven gradient concentrations was 10000 nM, 1000 nM, 100 nM, 10 nM, 1 nM, 0.1 nM and 0.01 nM). […] Then, each well was added with 53.8 μL of 6 mg/mL SnCl2 to quench the reaction. The sample was diluted with dilute buffer at 1:400. 10 μl of diluted sample, 5 μL PGE2-d2 and 5 μL anti-PGE2 Cryptate were added to a black 384-well plate, and incubated at 4° C. overnight. HTRF was determined using Flexstation, and the IC50 of the compounds was obtained by data processing software.
The inhibition activity of the present compounds on mPGES1 was tested by the assay described above.
(In general: In TR-FRET formats the signal depends on donor and acceptor labels being close together.)

A short description of series [3]: Pharmacokinetics assay in rats. The class given is in vivo. Conditions: both sexes, Sprague-Dawley, rat, plasma, po, SD rats, intragastric, 5 mg/kg; for Vd/F: read-out: Apparent Distribution Volume Vz/F; for AUC: read-out: Area Under Curve AUC; for CL/F: read-out: Clearance CLz/F; for half-life: read-out: Half-Life T½ (converted); for MRT: read-out: Mean Residence Time MRT; for Cmax: read-out: Plasma Conc. Cmax. On the procedure:
Rats were used as test animals. The drug concentration in plasma at different time points was determined by LC/MS/MS after administration of the compounds of Example 8, Example 11, Example 14, Example 17, Example 20, Example 27, Example 33, Example 35, Example 36, Example 37 and Example 48 to rats. The pharmacokinetic behavior of the present compounds was studied and evaluated in rats.
Forty four (44) healthy adult Sprague-Dawley (SD) rats, half male and half female, which were purchased from SINO-BRITSH SIPPR/BK LAB. ANIMAL LTD., CO, with Certificate No.: SCXK (Shanghai) 2008-0016, were divided into 11 groups, with 4 rats in each group.
The appropriate amount of test compounds was weighed, and mixed with 25 μL Tween 80 and Labrasol to prepare a 0.6 mg/mL suspension by ultrasonication.
After an overnight fast, 44 SD rats, half male and half female, were divided into 11 groups, and administered intragastrically at a dose of 5.0 mg/kg and an administration volume of 10 mL/kg.
Blood (0.1 mL) was sampled from the orbital sinus before administration and 0.5 h, 1.0 h, 2.0 h, 4.0 h, 6.0 h, 8.0 h, 11.0 h, and 24.0 h after administration. The samples were stored in EDTA anticoagulation tubes, and centrifuged for 5 minutes at 3,500 rpm to separate the blood plasma. The plasma samples were stored at −20° C. The rats were fed 2 hours after administration.
The plasma concentration of the test compounds in rat after intragastric administration was determined by LC-MS/MS. The linearity of the method is 5.00-2000 ng/mL and 1.00-2000 ng/ml, and the minimum of quantification is 5.00 ng/mL and 1.00 ng/mL.
Plasma samples were analyzed after pretreatment by protein precipitation.

Molecules are shown by their SMILES.

Experimental findings from US10081629B2, “Amide derivatives and pharmaceutically acceptable salts thereof, preparation method thereof and medicinal application thereof” (Shanghai Hengrui Pharmaceutical Co., Ltd., priority 2014, dated 2018) are described below.

Sequence of human mPGES1 (O14684 whole entry): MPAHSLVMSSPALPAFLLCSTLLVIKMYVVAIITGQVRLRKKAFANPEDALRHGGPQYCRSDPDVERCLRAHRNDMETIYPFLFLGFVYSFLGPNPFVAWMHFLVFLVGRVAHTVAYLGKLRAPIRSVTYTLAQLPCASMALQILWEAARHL

One may read the IC50 as the concentration at which inhibition is half-maximal. Usually AUC stands for concentration integrated over time. For orientation: half-life means how long it takes for the measured level to halve. The term MRT denotes the average time that molecules of a dose stay in the body. For orientation: Cmax means the highest concentration seen after dosing. For `CCn1c(-c2ccc(F)cc2)cc2cc(NC(=O)c3cc(CNC(=O)C(C)(C)C)ccc3Cl)ccc21` [Example 8, 2-Chloro-N-(1-ethyl-2-(4-fluorophenyl)-1H-indol-5-yl)5-((2,2-dimethylpropanoylamino)methyl)-benzamide], the IC50 in series [1] (A549, 24 h) was 19.1 nM. In series [2], this compound showed an IC50 of 3.88 nM. In series [3], the Vd/F amounted to 10.5 ± 4.66 L/kg, the area under the curve (AUC) was found to be 2900 ± 1340 ng·h/mL, the CL/F is 32.7 ± 13.1 mL/min/kg and the half-life is 4.69 ± 3.74 h. Also, in series [3], the MRT came out at 8.21 ± 4.88 h and the maximum concentration (Cmax) came to 346 ± 155 ng/mL.

On to `Cn1c(-c2ccc(F)cc2)cc2cc(NC(=O)c3cc(CNC(=O)C(C)(C)C)ccc3Cl)ccc21` [Example 11, 2-chloro-N-(2-(4-fluorophenyl)-1-methyl-1H-indol-5-yl)-5-((2,2-dimethylpropanoylamino)methyl)benzamide], for which the IC50 in series [1] (A549, 24 hours) was 16.3 nM. Also, in series [2], half-maximal inhibition (IC50) was put at 5.14 nM. In series [3], the Vd/F stood at 5.83 ± 1.14 L/kg, the AUC amounted to 7230 ± 5320 ng·h/mL, the CL/F came to 19.2 ± 14.1 mL/min/kg and the half-life was 5.27 ± 3.25 h. Further, in series [3], the MRT amounted to 10.4 ± 5.1 h and the Cmax was determined as 572 ± 167 ng/mL.

In the case of `Cn1c(-c2ccc(Cl)cc2)cc2cc(NC(=O)c3cc(CNC(=O)C(C)(C)F)cnc3C(F)F)ccc21` [Example 14, N-(2-(4-Chlorophenyl)-1-methyl-1H-indol-5-yl)-2-(difluoromethyl)-5-(((2-fluoro-2-methyl-propanoyl)amino)methyl)nicotinamide], the IC50 in series [1] (A549, 24 h) stood at 20.5 nM. Also, the IC50 in series [2] was determined as 4.59 nM. In series [3], the Vd/F came to 17.9 ± 3.12 L/kg, the area under the curve (AUC) was determined as 1790 ± 984 ng·h/mL, the CL/F came out at 56.7 ± 25.4 mL/min/kg and the half-life was 4.15 ± 1.59 h. Also, in series [3], the MRT worked out at 9.25 ± 2.24 h and the highest concentration (Cmax) worked out at 150 ± 56 ng/mL.

As for `CCn1c(-c2ccc(C(F)(F)F)cc2)cc2cc(NC(=O)c3cc(CNC(=O)C(C)(C)F)cnc3C(F)F)ccc21` [Example 17, 2-(Difluoromethyl)-N-(1-ethyl-2-(4-(trifluoromethyl)phenyl)-1H-indol-5-yl)-5-(((2-fluoro-2-methyl-propanoyl)amino)methyl)nicotinamide], it took 12.1 nM to reach half-maximal inhibition in series [1] (A549, 24 hours) (IC50). The compound further showed an IC50 in series [2] of 2.68 nM. Besides, in series [3], the Vd/F was determined as 20.2 ± 2.6 L/kg, the area under the curve (AUC) was determined as 2000 ± 650 ng·h/mL, the CL/F is 45.3 ± 15.3 mL/min/kg and the half-life is 5.44 ± 1.23 h. For the same compound, in series [3], the MRT came out at 10.4 ± 1.9 h and the Cmax turned out to be 155 ± 26 ng/mL.

Take `CCn1c(-c2cccc(Cl)c2)cc2cc(NC(=O)c3cc(CNC(=O)C(C)(C)F)cnc3C(F)F)ccc21` [Example 20, N-(2-(3-Chlorophenyl)-1-ethyl-1H-indol-5-yl)-2-(difluoromethyl)-5-(((2-fluoro-2-methyl-propanoyl)amino)methyl)nicotinamide]: in series [1] (A549, 24 hours), the 50% inhibitory concentration (IC50) came to 12.6 nM. Moreover, the concentration for half-maximal inhibition (IC50) in series [2] was 3.54 nM. For the same compound, in series [3], the Vd/F was found to be 5.41 ± 1.81 L/kg, the AUC amounted to 8240 ± 2280 ng·h/mL, the CL/F worked out at 10.7 ± 2.7 mL/min/kg and the half-life was 5.94 ± 2 h. Also, in series [3], the mean residence time (MRT) came out at 11.1 ± 3 h and the maximum concentration (Cmax) stood at 681 ± 195 ng/mL.

In series [1] (A549, 24 hours), `COCCn1c(-c2ccc(C(F)(F)F)cc2)cc2cc(NC(=O)c3cc(CNC(=O)C(C)(C)F)cnc3C(F)F)ccc21` [Example 27, 2-(Difluoromethyl)-5-(((2-fluoro-2-methyl-propanoyl)amino)methyl)-N-(1-(2-methoxyethyl)-2-(4-(trifluoromethyl)phenyl)-1H-indol-5-yl)nicotinamide] displayed a 50% inhibitory concentration (IC50) of 13.4 nM. The compound also displayed an IC50 in series [2] of 4.77 nM. Moreover, in series [3], the Vd/F turned out to be 15.1 ± 1.53 L/kg, the AUC came out at 1180 ± 247 ng·h/mL, the CL/F was determined as 73.3 ± 15.3 mL/min/kg and the half-life is 2.46 ± 0.59 h. Further, in series [3], the mean residence time (MRT) was 5.32 ± 1.03 h and the Cmax worked out at 193 ± 23 ng/mL.

For `Cn1c(-c2cccc(Cl)c2)cc2cc(NC(=O)c3cc(CNC(=O)C(C)(C)F)cnc3C(F)F)ccc21` [Example 33, N-(2-(3-Chlorophenyl)-1-methyl-1H-indol-5-yl)-2-(difluoromethyl)-5-(((2-fluoro-2-methyl-propanoyl)amino)methyl)nicotinamide], the half-inhibitory concentration (IC50) in series [1] (A549, 24 hours) is 12.8 nM. Further, the IC50 in series [2] turned out to be 5.33 nM. In series [3], the Vd/F stood at 4.82 ± 0.961 L/kg, the area under the curve (AUC) turned out to be 5720 ± 1210 ng·h/mL, the MRT amounted to 7.6 ± 1.09 h and the Cmax came out at 557 ± 80 ng/mL.

In series [1] (A549, 24 hours), `Cn1c(-c2cccc(Cl)c2)cc2nc(NC(=O)c3cc(CNC(=O)C(C)(C)F)cnc3C(F)F)ccc21` [Example 35, N-(2-(3-Chlorophenyl)-1-methyl-1H-pyrrolo[3,2-b]pyridin-5-yl)-2-(difluoromethyl)-5-(((2-fluoro-2-methyl-propanoyl)amino)methyl)nicotinamide] showed a concentration for half-maximal inhibition (IC50) of 31.6 nM. The compound also returned an IC50 in series [2] of 4.07 nM. Further, in series [3], the Vd/F came to 1.85 ± 0.576 L/kg, the AUC was determined as 37400 ± 36700 ng·h/mL, the CL/F came out at 4.69 ± 3.72 mL/min/kg and the half-life was 11.3 ± 14.5 h. Also, in series [3], the MRT worked out at 18.8 ± 20.6 h and the highest concentration (Cmax) turned out to be 1510 ± 517 ng/mL.

Consider `Cn1c(-c2cccc(Cl)c2)cc2cc(NC(=O)c3cc(CNC(=O)C(C)(C)F)cnc3C(F)F)ncc21` [Example 36, N-(2-(3-Chlorophenyl)-1-methyl-1H-pyrrolo[2,3-c]pyridin-5-yl)-2-(difluoromethyl)-5-(((2-fluoro-2-methyl-propanoyl)amino)methyl)nicotinamide], for which the IC50 in series [1] (A549, 24 hours) was 13.2 nM. Moreover, the IC50 in series [2] came to 4.19 nM. For the same compound, in series [3], the Vd/F came out at 7.22 ± 1.34 L/kg, the AUC came to 3540 ± 1970 ng·h/mL, the CL/F came to 30.4 ± 17 mL/min/kg and the half-life was 3.69 ± 2.4 h. Moreover, in series [3], the MRT is 6.56 ± 3.01 h and the Cmax turned out to be 459 ± 157 ng/mL.

With `CCn1c(-c2cccc(Cl)c2)cc2nc(NC(=O)c3cc(CNC(=O)C(C)(C)F)cnc3C(F)F)ccc21` [Example 37, N-(2-(3-Chlorophenyl)-1-ethyl-1H-pyrrolo[3,2-b]pyridin-5-yl)-2-(difluoromethyl)-5-(((2-fluoro-2-methyl-propanoyl)amino)methyl)nicotinamide], the midpoint of inhibition in series [1] (A549, 24 hours), the IC50, lay at 22.4 nM. In series [2], the half-inhibitory concentration (IC50) was found to be 6.46 nM. Further, in series [3], the Vd/F came to 1.39 ± 0.17 L/kg, the AUC was found to be 23200 ± 14200 ng·h/mL, the CL/F was 5.44 ± 4.31 mL/min/kg and the half-life is 4.49 ± 2.93 h. Further, in series [3], the MRT came to 7.34 ± 3.76 h and the Cmax was found to be 2350 ± 676 ng/mL.
